Experimental data taken from patent publication US20030161893A1, “PTPase inhibitors and methods of using the same” (priority 2001, published 2003).
Values joined by “and” are separate entries in the source; they are usually repeats but may differ in a detail not shown here. Equal entries are not always repeated.

Legend:
GSTm8 = assay: In vitro PTPase assay, GSTm8; assay type: biochemical; settings: 3-4 μg/ml or 10-100 μg/ml
SHP-1 = molecular target: T1, SHP-1 (Mus musculus, UniProt P29351); assay: In vitro PTPase assay, GST/SHP-1 fusion protein; assay type: biochemical
T1 construct: made in house
T1 sequence (P29351 whole entry, the tested form may be a part): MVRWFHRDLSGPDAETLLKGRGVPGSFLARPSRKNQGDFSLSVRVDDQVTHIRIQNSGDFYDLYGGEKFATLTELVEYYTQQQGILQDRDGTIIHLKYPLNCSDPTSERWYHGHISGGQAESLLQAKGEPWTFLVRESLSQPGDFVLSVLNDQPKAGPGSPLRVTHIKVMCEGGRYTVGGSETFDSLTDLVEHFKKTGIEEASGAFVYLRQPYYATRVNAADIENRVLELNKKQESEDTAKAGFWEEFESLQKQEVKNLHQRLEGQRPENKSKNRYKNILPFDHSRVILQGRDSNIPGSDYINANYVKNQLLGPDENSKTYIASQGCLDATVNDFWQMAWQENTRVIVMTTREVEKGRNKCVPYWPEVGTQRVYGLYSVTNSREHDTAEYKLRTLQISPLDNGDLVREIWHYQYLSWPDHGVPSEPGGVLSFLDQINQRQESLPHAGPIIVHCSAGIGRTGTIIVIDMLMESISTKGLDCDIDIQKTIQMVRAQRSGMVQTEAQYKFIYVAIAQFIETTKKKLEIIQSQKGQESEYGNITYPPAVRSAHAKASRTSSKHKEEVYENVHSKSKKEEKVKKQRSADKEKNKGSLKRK
Procedure: In vitro PTPase activities were measured using the commercial protein tyrosine phosphatase assay kit (Upstate Biotechnology, Inc. (“UBI”)) following established procedure known to one of skill in the art. […] 100 μl of Malachite Green solution was added and incubated for 5 minutes, and the absorbance at 660 nm was measured after 5 minutes.
The beads were then either subjected to in vitro PTPase assays or washed 3 times in Tris buffer then subjected to in vitro PTPase assays.
Briefly, individual PTPases (0.1 μg/reaction) in 50 μL of PTPase buffer (50 mM Tris, pH 7.4) were incubated at 22° C. for 10 minutes or as indicated in the absence or presence of inhibitory compounds. […] […] […] Relative PTPase activities were calculated based on the formula: (PTPase activity in the presence of an inhibitory compound/PTPase activity in the absence of the compound)×100%. To assess the reversibility of PTPase inhibition, GST fusion proteins of the PTPases bound on glutathione beads (Pharmacia) were pre-incubated with cold Tris buffer (50 mM Tris, pH 7.0) or Tris buffer containing the inhibitor at 4° C. for 30 minutes. The beads were then washed three times in cold Tris buffer or not washed prior to subjecting to in vitro PTPase assays.

MKP1 = molecular target: T2, MKP1 (Homo sapiens, UniProt P28562); assay: In vitro PTPase assay, GST/MKP1 fusion protein; assay type: biochemical
T2 construct: a pGEX construct containing the coding region of MKP1 cDNA derived by RT-PCR; made in house; host or cells: DH5a bacteria (E. coli)
T2 sequence (P28562 1-367): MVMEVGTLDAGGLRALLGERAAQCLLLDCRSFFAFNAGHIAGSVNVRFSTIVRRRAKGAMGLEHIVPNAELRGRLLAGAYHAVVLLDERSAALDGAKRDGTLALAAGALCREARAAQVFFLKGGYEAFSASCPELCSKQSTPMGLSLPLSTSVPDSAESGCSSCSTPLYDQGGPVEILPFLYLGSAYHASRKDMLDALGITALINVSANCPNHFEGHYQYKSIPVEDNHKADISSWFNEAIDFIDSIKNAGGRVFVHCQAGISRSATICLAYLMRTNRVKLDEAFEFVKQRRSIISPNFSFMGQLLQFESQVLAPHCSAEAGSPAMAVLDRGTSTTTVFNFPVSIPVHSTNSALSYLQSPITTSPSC

PRL-3 = molecular target: T3, PRL-3 (Homo sapiens, UniProt O75365); assay: In vitro PTPase assay, recombinant PRL-3; assay type: biochemical; settings: DiFMUP, comparable conditions
T3 construct: cDNAs of human PRL-1, PRL-2 and PRL-3 coding region were derived by RT-PCR from H9 cells; made in house; host or cells: DH5a bacteria (E. coli)
T3 sequence (O75365 whole entry): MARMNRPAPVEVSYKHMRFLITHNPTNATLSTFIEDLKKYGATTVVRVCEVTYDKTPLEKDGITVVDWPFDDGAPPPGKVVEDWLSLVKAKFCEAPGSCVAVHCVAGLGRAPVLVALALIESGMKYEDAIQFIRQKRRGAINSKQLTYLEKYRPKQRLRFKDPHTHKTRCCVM
Description: Sodium stibogluconate, suramin, sodium orth ovanadate and GST fusion protein of SHP-1 have been described previously (Pathak et al., J. Imumol. 167, 3391 (2001)). Meglumine antimonate was obtained from Aventis. cDNAs of human PRL-1, PRL-2 and PRL-3 coding region were derived by RT-PCR from H9 cells (Safai, et al., Lancet 1, 1438 (1984)) and inserted in frame into the pGEX vector. cDNA of PRL-1R86 was generated by recombinant DNA technique using PRL-1 cDNA as template following established procedures (Jiao, et al., Mol. Cell. Biol. 16, 6985 (1996)). GST fusion proteins of the PRL phosphatases were prepared from DH5a bacteria transformed with the pGEX fusion protein constructs as described previously (Yi, et al., Mol. Cell. Biol. 12, 836 (1992)). cDNAs encoding the PRLs tagged at the N-termini with the Flag epitope (Castrucci, et al., J. Virol. 66, 4647 (1992)) were generated via recombinant DNA technique, sequenced to confirm their identities and cloned into the pBabepuro vector (Yang, et al., Blood 91, 3746 (1998)). Anti-Flag monoclonal antibody (M2, Sigma) was purchased from a commercial source. A synthetic phosphotyrosine peptide (Arg-Arg-Leu-Ile-Glu-Asp-Ala-Gle-Tyr-Ala-Ala-Arg-Gly (SEQ ID NO: 3), wherein the tyrosine is phosphorylated; UBI) and DiFMUP (6, 8-difluoro-4-methylumbelliferyl phosphate, Molecular Probes) were purchased as substrates for PTPase assays.
In vitro PTPase assays were used to determine the effects of compounds on recombinant PTPases, following established procedures using a synthetic phosphotyrosine peptide or DiFMUP as the substrate (Pathak et al., J. Imumol. 167, 3391 (2001)). Briefly, individual PTPases (0.1 μg/reaction) in 50 μL of PTPase buffer (50 mM Tris, pH 7.4) were incubated at 22° C. for 10 minutes or as indicated in the absence or presence of inhibitory compounds. Substrates (0.2 mM phosphotyrosine peptide) were then added and allowed to react at 22° C. for 18 hrs. PTPase activity of individual reactions was measured by adding 100 μL of malachite green solution (UBI) and then quantifying the amounts of free phosphate cleaved by the PTPase from the peptide substrate by spectrometry (OD660 nm). PTPase assays using DiFMUP as a substrate were conducted following a previously described procedure (Matter, et al., Biochem. Biophys. Res. Comm. 283, 1061 (2001)). Relative PTPase activities were calculated based on the formula: (PTPase activity in the presence of an inhibitory compound/PTPase activity in the absence of the compound)×100%. To assess the reversibility of PTPase inhibition, GST fusion proteins of the PTPases bound on glutathione beads (Pharmacia) were pre-incubated with cold Tris buffer (50 mM Tris, pH 7.0) or Tris buffer containing the inhibitor at 4° C. for 30 minutes. The beads were then washed three times in cold Tris buffer or not washed prior to subjecting to in vitro PTPase assays.

U937 cells = assay: U937 cell differentiation (NBT reduction); assay type: cell-based, human; settings: day 6; sodium stibogluconate 400 μg/ml, GM-CSF 25 ng/ml, ATRA
Procedure: (§1) Differentiation of AML cell lines was assessed by their ability to produce superoxide as measured by reduction of NBT to formazan and by analysis of expression of CD11b surface marker by flow cytometry. For NBT reduction, each cell suspension was mixed with an equal volume of solution containing 1 mg/ml of NBT (Sigma) and 2.5 μg/ml of TPA for 30 minutes at 37° C. After incubation, cells containing the purple formazan deposits and cells devoid of NBT-reducing activity (white cells) in each sample were determined by counting 200 cells under microscope. Data is expressed as a percentage based on the following ratio: purple cells/purple+white cells. For analysis of cell surface antigens, cells were exposed to phycoerythrin (PE)-conjugated murine anti-human CD11b (DAKO Corp., Carpinteria, Calif.). Analysis of fluorescence was performed on a FACScan flow cytometer (Beckton Dickinson, Mountain View, Calif.).

NB4 cells = assay: NB4 cell growth (MTT), cell cycle and Annexin V; assay type: cell-based, human; settings: 3 days; sodium stibogluconate 250 μg/ml, ATRA 1 μM
Procedure: The NB4 cell line (Lanotte et al., Blood 77, 1080 (1991)) was a gift from Dr. Dan Lindner of the Cleveland Clinic Foundation. […] and U937 cell lines were purchased from American Type Culture Collection (Rockville, Md.). These human […] cell lines were maintained in RPMI 1640 medium supplemented with 10% fetal calf serum (FCS). For cell proliferation assays, cells were cultured at 37° C. in 10% FCS medium containing various amounts of sodium stibogluconate for 6 days. The cell numbers in the cultures were determined by an MTT assay as described previously in Mosmann, J. Imunol. Methods 65, 55 (1983).
The cell cycle was analyzed by flow cytometry after 3 days of culture of NB4 cells in the absence or presence of sodium stibogluconate (250 μg/ml) or ATRA (1 μM). Briefly, the cells were fixed in cold ethanol and incubated for 30 minutes at 4° C. in the dark with a solution of […] propidium iodide, 1 mg/ml RNase and 0.1% NP-40. Analysis was performed immediately after staining using the CELLFIT program (Becton Dickinson, Mountain View, Calif.).
Annexin V staining of exposed membrane phospholipid phosphatidylserine (PS) was done using the Annexin V assay kit (Pharmingen, San Diego, Calif.). Briefly, NB4 cells were cultured in the 10% FCS RPMI 1640 medium in the absence or presence of sodium stibogluconate (250 μg/ml) or ATRA (1 μM) for 3 days. Cells were then washed in PBS twice and stained in binding buffer (10 mM Hepes, pH 7.4; 140 mM NaCl; 2.5 mM CaCl2) containing Annexin V-FITC and propidium iodide for 15 min. The reaction was stopped by adding 10 volumes of binding buffer and analyzed by FACS (Becton Dickinson Facsvantage).

HL-60 cells = assay: HL-60 cell differentiation (NBT reduction); assay type: cell-based, human; settings: day 6; sodium stibogluconate 400 μg/ml, GM-CSF 25 ng/ml, ATRA
Procedure: as §1

Jak2/Stat5 = assay: IL-3-induced Jak2/Stat5 tyrosine phosphorylation in Baf3 cells; assay type: cell-based, murine
Procedure: For induction of cellular protein phosphorylation by sodium stibogluconate or pervanadate, Baf3 cells were incubated in 0.1% FCS-RPMI 1640 medium at 37° C. for 16 hours. The cells were then washed twice in RPMI 1640 medium and incubated with sodium stibogluconate or pervanandate (0.1 mM) for various times prior to termination by lysing cells in cold lysis buffer (50 mM Tris, pH 7.4; 150 mM NaCl; 0.2 mM Na3VO4; 20 mm NaF; 1% Nonidet P-40; 2 mM PMSF; 20 μg/ml of Aprotinin and 1 mM of sodium molybdic acid). To determine the effect of sodium stibogluconate or potassium antimonyl tartrate on IL-3-induced Jak/Stat phosphorylation, Baf3 cells were deprived of the growth factor for 16 hours in 0.1% FCS RPMI 1640 medium and then incubated with or without sodium stibogluconate or potassium antimonyl tartrate for 10 minutes. IL-3 was next added to the cell suspension and incubated for various times. The Cells were then harvested and lysed in cold lysis buffer at 4° C. for 45 minutes. Total cell lysates (TCL) were separated in SDS-PAGE gels, blotted onto nitrocellulose membrane (Schleicher & Schuell), probed with specific antibodies and detected using an enhanced chemiluminescence kit (ECL, Amersham, Arlington Heights, Ill.).

Baf3 cells = assay: Baf3 cell proliferation assay; assay type: cell-based, murine
Procedure: The murine hematopoietic cell line Baf3 was maintained in RPMI 1640 medium supplemented with 10% fetal calf serum (FCS) and murine IL-3 (20 units/ml) as described previously in Damen et al., J. Biol. Chem. 270, 23402 (1995). Human myeloid cell line TF-1 was maintained in RPMI 1640 supplemented with 10% FCS and 40 ng/ml of recombinant human GM-CSF as described previously in Thomassen et al., Clin. Immunol. 95, 85 (2000). For cell proliferation assays, cells were washed in 10% FCS medium twice, resuspended in 10% FCS medium, incubated at 37° C. for 16 hours, and then cultured at 37° C. in 10% FCS medium containing various amounts of cytokines, sodium stibogluconate, or potassium antimonyl tartrate for 3-6 days as indicated. The cell numbers in proliferation assays were determined by an MTT assay or by microscopic cell counting as indicated.

PTP1B = molecular target: T4, PTP1B (Homo sapiens, UniProt P18031); assay: In vitro PTPase assay, GST/PTP1B fusion protein; assay type: biochemical; settings: 1-1,000 μg/ml
T4 construct: purchased Upstate Biotechnology Inc. (Lake Placid, N.Y.)
T4 sequence (P18031 whole entry, species assumed, the tested form may be a part): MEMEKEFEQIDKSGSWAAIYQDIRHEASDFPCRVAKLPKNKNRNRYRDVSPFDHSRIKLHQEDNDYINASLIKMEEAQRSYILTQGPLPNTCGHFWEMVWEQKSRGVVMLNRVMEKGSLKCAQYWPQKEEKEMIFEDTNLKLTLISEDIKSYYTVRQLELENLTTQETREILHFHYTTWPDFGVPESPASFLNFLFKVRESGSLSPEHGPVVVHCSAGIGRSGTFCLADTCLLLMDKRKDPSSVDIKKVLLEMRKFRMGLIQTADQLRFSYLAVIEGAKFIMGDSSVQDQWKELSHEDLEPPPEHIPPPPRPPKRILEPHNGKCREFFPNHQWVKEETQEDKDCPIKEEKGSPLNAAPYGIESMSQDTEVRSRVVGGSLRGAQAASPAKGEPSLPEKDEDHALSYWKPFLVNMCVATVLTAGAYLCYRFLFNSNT
Procedure: In vitro PTPase activities were measured using the commercial protein tyrosine phosphatase assay kit (Upstate Biotechnology, Inc. (“UBI”)) following established procedure known to one of skill in the art. This assay measures the in vitro dephosphorylation of a synthetic phosphotyrosine peptide of the sequence Arg-Arg-Leu-Ile-Glu-Asp-Ala-Gle-Tyr-Ala-Ala-Arg-Gly, wherein the tyrosine is phosphorylated (SEQ ID NO: 3). Briefly, 0.01 μg of GST/PTPase fusion proteins was incubated in 50 μl of Tris buffer (10 mM Tris, pH 7.4) containing different concentrations of inhibitors or chemicals (0-1,000 μg/ml) at 22° C. for 10 minutes, followed by addition of 0.2 mM of the phosphotyrosine peptide and incubation at 22° C. for 18 hours. 100 μl of Malachite Green solution was added and incubated for 5 minutes, and the absorbance at 660 nm was measured after 5 minutes.

In the case of `c1ccc([C@H]2CN3CCSC3=N2)cc1` [levamisole], the “inhibitory activity against GSTm8” value (GSTm8) was “no obvious inhibitory activity”, the “inhibitory activity against SHP-1” value (SHP-1; 3-4 μg/ml or 10-100 μg/ml) was “no obvious inhibitory activity” and the “inhibition of MKP1” value (MKP1) was “substantial inhibition”.

For `Cc1ccc(C(=O)Nc2ccc(S(=O)(=O)O)c3cc(S(=O)(=O)O)cc(S(=O)(=O)O)c23)cc1NC(=O)c1cccc(NC(=O)Nc2cccc(C(=O)Nc3cc(C(=O)Nc4ccc(S(=O)(=O)O)c5cc(S(=O)(=O)O)cc(S(=O)(=O)O)c45)ccc3C)c2)c1` [Suramin], the “inhibition of SHP-1 compared with sodium stibogluconate” value (SHP-1; comparable conditions) was “less effective”, the “reversibility of SHP-1 inhibition by washing” value (SHP-1; pre-incubated at 4° C. 30 minutes, beads washed 3 times) was “almost completely removed by the washing process” and the “inhibition of PRL-3 with DiFMUP substrate” value (PRL-3) was “less effective”.

`CC1=C(/C=C/C(C)=C/C=C/C(C)=C/C(=O)O)C(C)(C)CCC1` [ATRA, All-trans-retinoic acid] was tested, and the “NBT-positive (differentiated) U937 cells” value (U937 cells) was 72% and 73%, the “cell cycle of NB4 cells” value (NB4 cells) was “arrested at GI phase” and the “NBT-positive (differentiated) HL-60 cells” value (HL-60 cells) was 90%.

In the case of `O.O.O.O=C([O-])[C@H]([O-])[C@@H]([O-])C(=O)[O-].O=C([O-])[C@H]([O-])[C@@H]([O-])C(=O)[O-].[K+].[K+].[Sb+3].[Sb+3]` [potassium antimonyl tartrate], the “IL-3-induced Stat5 phosphorylation” value (Jak2/Stat5) was “failed to enhance”, the “inhibition of SHP-1” value (SHP-1; 1-1,000 μg/ml) was “no detectable inhibition” and the “toxicity against Baf3 cells” value (Baf3 cells) was “marked toxicity”. The “IL-3-induced proliferation of Baf3 cells” value (Baf3 cells; IL-3 10 units/ml, three days) was “failed to enhance” and the “inhibition of PTP1B” value (PTP1B) was “no detectable inhibition”.

With `[Na+].[Na+].[Na+].[O]=[V]([O-])([O-])[O-]` [sodium orthovanadate] the “inhibition of PRL-3 with DiFMUP substrate” value (PRL-3) was “less effective”.
